Measured values taken from ChEMBL document CHEMBL1147894, “Amphiphilic polyether branched molecules to increase the circulation time of cationic particles” (Bioorg Med Chem, 2007).
Activity calls are given as the source filed them. No cut-off for these calls is given here.

Key:
Mus musculus = organism: Mus musculus; assay: Biodistribution in C57BL/6 mouse blood after 30 mins; assay type: ADME, organism-based; details: in vivo, 0.5 h
B16 = assay: Decrease in transfection efficacy in […] B16 cells assessed by luciferase assay; assay type: functional, cell-based

SMILES | Activity (Mus musculus) | Activity (B16)
CCCCCCCCCCCCCCN(CCCCCCCCCCCCCC)C(=O)CNC(=O)CNCCCN(CCCN)CCCN.Cl.Cl.Cl.Cl | 2.7% | 
CCCCCCCCCCCCCCCCCCN(CCCCCCCCCCCCCCCCCC)C(=O)CNC(=O)CNC(=O)CNC(=O)OCC(COC(CO)CO)COC(CO)CO | 8% | Active
